In this experiment the test system is ATF4 luciferase reporter in HEK293T cells. In words: ATF4-Luc assay (ATF4 luciferase reporter, tunicamycin-treated HEK293T cells). The following applies: Homo sapiens, HEK-293T; HEK293T cells carrying the ATF4 luciferase reporter, 1 μg/mL tunicamycin, 7 hours. In kind it is cell-based, human.
Take `O=C(COc1cccc(OC(F)(F)F)c1)NC12CC(NC(=O)COc3ccc(Cl)c(F)c3)(C1)C2` [Compound 392, 2-(4-chloro-3-fluorophenoxy)-N-(3-{2-[3-(trifluoromethoxy)phenoxy]acetamido}bicyclo[1.1.1]pentan-1-yl)acetamide]: the EC50 was less than 10 nM.

For `O=C(COc1ccc(OC(F)(F)F)cc1)NC12CC(NC(=O)COc3ccc(Cl)c(F)c3)(C1)C2` [Compound 393, 2-(4-chloro-3-fluorophenoxy)-N-(3-{2-[4-(trifluoromethoxy)phenoxy]acetamido}bicyclo[1.1.1]pentan-1-yl)acetamide], the EC50 was less than 10 nM. Under `Cc1cc(OCC(=O)NC23CCC(NC(=O)COc4ccc(Cl)c(F)c4)(CC2)C[C@@H]3O)cnc1C` [Compound 394, 2-(4-chloro-3-fluorophenoxy)-N-[(3S)-4-{2-[(5,6-dimethylpyridin-3-yl)oxy]acetamido}-3-hydroxybicyclo[2.2.2]octan-1-yl]acetamide] stands less than 10 nM; under `Cc1cc(OCC(=O)NC23CCC(NC(=O)COc4ccc(Cl)c(F)c4)(CC2)C[C@@H]3O)cc(C)n1` [Compound 395, 2-(4-chloro-3-fluorophenoxy)-N-[(3S)-4-{2-[(2,6-dimethylpyridin-4-yl)oxy]acetamido}-3-hydroxybicyclo[2.2.2]octan-1-yl]acetamide], 500 to 2000 nM; under `O=C(COc1cccc(OC(F)F)c1)NC12CC(NC(=O)COc3ccc(Cl)c(F)c3)(C1)C2` [Compound 396, 2-(4-chloro-3-fluorophenoxy)-N-(3-{2-[3-(difluoromethoxy)phenoxy]acetamido}bicyclo[1.1.1]pentan-1-yl)acetamide], 10 to 50 nM. Regarding `O=C(COc1ccc(OC(F)F)cc1)NC12CC(NC(=O)COc3ccc(Cl)c(F)c3)(C1)C2` [Compound 397, 2-(4-chloro-3-fluorophenoxy)-N-(3-{2-[4-(difluoromethoxy)phenoxy]acetamido}bicyclo[1.1.1]pentan-1-yl)acetamide], the EC50 fell in the range of 10 to 50 nM. For `O=C(COc1ccccc1)NC12CC(NC(=O)COc3ccc(Cl)c(F)c3)(C1)C2` [Compound 398, 2-(4-chloro-3-fluorophenoxy)-N-[3-(2-phenoxyacetamido)bicyclo[1.1.1]pentan-1-yl]acetamide], the EC50 lay within 10 to 50 nM. As for `O=C(COc1ccc(C(F)F)nc1)NC12CC(NC(=O)COc3ccc(Cl)c(F)c3)(C1)C2` [Compound 399, 2-(4-chloro-3-fluorophenoxy)-N-[3-(2-{[6-(difluoromethyl)pyridin-3-yl]oxy}acetamido)bicyclo[1.1.1]pentan-1-yl]acetamide], the concentration giving a half-maximal response (EC50) was in the range of 10 to 50 nM. On to `O=C(COc1ccc(C(F)(F)F)nc1)NC12CC(NC(=O)COc3ccc(C(F)(F)F)nc3)(C1)C2` [Compound 400, N,N′-(bicyclo[1.1.1]pentane-1,3-diyl)bis(2-{[6-(trifluoromethyl)pyridin-3-yl]oxy}acetamide)], for which the EC50 was in the range of 50 to 250 nM. Under `O=C(COc1ccc(Cl)c(Cl)c1)NC12CC(NC(=O)COc3ccccn3)(C1)C2` [Compound 401, 2-(3,4-dichlorophenoxy)-N-(3-{2-[(pyridin-2-yl)oxy]acetamido}bicyclo[1.1.1]pentan-1-yl)acetamide] stands 10 to 50 nM; under `O=C(COc1ccc(Cl)c(F)c1)NC12CC(NC(=O)COc3ccccn3)(C1)C2` [Compound 402, 2-(4-chloro-3-fluorophenoxy)-N-(3-{2-[(pyridin-2-yl)oxy]acetamido}bicyclo[1.1.1]pentan-1-yl)acetamide], 50 to 250 nM.

For `O=C(COc1cccnc1)NC12CCC(NC(=O)COc3ccc(Cl)c(F)c3)(C1)C2` [Compound 403, 2-(4-chloro-3-fluorophenoxy)-N-(4-{2-[(pyridin-3-yl)oxy]acetamido}bicyclo[2.1.1]hexan-1-yl)acetamide], the EC50 is 500 to 2000 nM. Under `O=C(COc1ccc(Cl)c(F)c1)NC12CCC(NC(=O)COc3ccccn3)(C1)C2` [Compound 404, 2-(4-chloro-3-fluorophenoxy)-N-(4-{2-[(pyridin-2-yl)oxy]acetamido}bicyclo[2.1.1]hexan-1-yl)acetamide] stands 500 to 2000 nM; under `O=C(COc1cccnc1)NC12CC(NC(=O)COc3ccc(Cl)c(Cl)c3)(C1)C2` [Compound 405, 2-(3,4-dichlorophenoxy)-N-(3-{2-[(pyridin-3-yl)oxy]acetamido}bicyclo[1.1.1]pentan-1-yl)acetamide], 50 to 250 nM. Under `O=C(COc1ccc(Cl)c(F)c1)NC12CC(NC(=O)COc3c(F)cc(F)cc3F)(C1)C2` [Compound 406, 2-(4-chloro-3-fluorophenoxy)-N-{3-[2-(2,4,6-trifluorophenoxy)acetamido]bicyclo[1.1.1]pentan-1-yl}acetamide] stands 10 to 50 nM.

Take `CC(C)(O)c1ccc(OCC(=O)NC23CC(NC(=O)COc4ccc(Cl)c(F)c4)(C2)C3)cc1` [Compound 407, 2-(4-chloro-3-fluorophenoxy)-N-(3-{2-[4-(2-hydroxypropan-2-yl)phenoxy]acetamido}bicyclo[1.1.1]pentan-1-yl)acetamide]: the half-maximal effective concentration (EC50) was 50 to 250 nM. On to `O=C(COc1ccc(F)cc1)NC12CC(NC(=O)COc3ccc(Cl)c(F)c3)(C1)C2` [Compound 408, 2-(4-chloro-3-fluorophenoxy)-N-{3-[2-(4-fluorophenoxy)acetamido]bicyclo[1.1.1]pentan-1-yl}acetamide], for which the concentration giving a half-maximal response (EC50) is less than 10 nM. Under `O=C(COc1ccc(Cl)c(F)c1)NC12CC(NC(=O)COc3ccc(F)cc3F)(C1)C2` [Compound 409, 2-(4-chloro-3-fluorophenoxy)-N-{3-[2-(2,4-difluorophenoxy)acetamido]bicyclo[1.1.1]pentan-1-yl}acetamide] stands less than 10 nM. In the case of `O=C(COc1cccc(F)c1)NC12CC(NC(=O)COc3ccc(Cl)c(F)c3)(C1)C2` [Compound 410, 2-(4-chloro-3-fluorophenoxy)-N-{3-[2-(3-fluorophenoxy)acetamido]bicyclo[1.1.1]pentan-1-yl}acetamide], the 50% effective concentration (EC50) was less than 10 nM. Under `O=C(COc1ccc(Cl)c(F)c1)NC12CC(NC(=O)COc3ccccc3F)(C1)C2` [Compound 411, 2-(4-chloro-3-fluorophenoxy)-N-{3-[2-(2-fluorophenoxy)acetamido]bicyclo[1.1.1]pentan-1-yl}acetamide] stands 10 to 50 nM; under `COc1cc(Cl)ccc1OCC(=O)NC12CC(NC(=O)COc3ccc(Cl)c(F)c3)(C1)C2` [Compound 412, 2-(4-chloro-3-fluorophenoxy)-N-{3-[2-(4-chloro-2-methoxyphenoxy)acetamido]bicyclo[1.1.1]pentan-1-yl}acetamide], 50 to 250 nM; under `CC(O)(c1ccc(OCC(=O)NC23CC(NC(=O)COc4ccc(Cl)c(F)c4)(C2)C3)cc1)C(F)(F)F` (centres unmarked) [Compound 413, 2-(4-chloro-3-fluorophenoxy)-N-(3-{2-[4-(1,1,1-trifluoro-2-hydroxypropan-2-yl)phenoxy]acetamido}bicyclo[1.1.1]pentan-1-yl)acetamide], 250 to 500 nM. `O=C(COc1ccc(Cl)c(F)c1)NC12CC(NC(=O)COc3cc(F)c(F)cc3F)(C1)C2` [Compound 414, 2-(4-chloro-3-fluorophenoxy)-N-{3-[2-(2,4,5-trifluorophenoxy)acetamido]bicyclo[1.1.1]pentan-1-yl}acetamide]: the EC50 was less than 10 nM. For `O=C(COc1ccc(Cl)c(F)c1)NC12CC(NC(=O)COc3ccc(OC(F)(F)F)c(F)c3)(C1)C2` [Compound 415, 2-(4-chloro-3-fluorophenoxy)-N-(3-{2-[3-fluoro-4-(trifluoromethoxy)phenoxy]acetamido}bicyclo[1.1.1]pentan-1-yl)acetamide], the half-maximal effective concentration (EC50) was less than 10 nM. For the molecule `O=C(COc1ccc(Cl)c(F)c1)NC12CC(NC(=O)COc3cc(F)c(F)c(F)c3)(C1)C2` [Compound 416, 2-(4-chloro-3-fluorophenoxy)-N-{3-[2-(3,4,5-trifluorophenoxy)acetamido]bicyclo[1.1.1]pentan-1-yl}acetamide], the EC50 is less than 10 nM.

`O=C(COc1ccc(Cl)c(F)c1)NC12CC(NC(=O)[C@@H](CO)Oc3ccc(Cl)c(F)c3)(C1)C2` [Compound 418, (2R)-2-(4-chloro-3-fluorophenoxy)-N-{3-[2-(4-chloro-3-fluorophenoxy)acetamido]bicyclo[1.1.1]pentan-1-yl}-3-hydroxypropanamide]: the EC50 lay in the range of 10 to 50 nM.

On to `O=C(COc1ccc(Cl)c(F)c1)NC12CCC(NC(=O)COc3ccc(Cl)c(F)c3)(CC1)[C@@H](c1nn[nH]n1)C2` [Compound 419, N,N′-[(2S)-2-(2H-tetrazol-5-yl)bicyclo[2.2.2]octane-1,4-diyl]bis[2-(4-chloro-3-fluorophenoxy)acetamide]], for which the concentration for a half-maximal effect (EC50) lay within 50 to 250 nM. Under `Cc1noc([C@H]2CC3(NC(=O)COc4ccc(Cl)c(F)c4)CCC2(NC(=O)COc2ccc(Cl)c(F)c2)CC3)n1` [Compound 420, N,N′-[(2S)-2-(3-methyl-1,2,4-oxadiazol-5-yl)bicyclo[2.2.2]octane-1,4-diyl]bis[2-(4-chloro-3-fluorophenoxy)acetamide]] stands less than 10 nM; under `COCC(Oc1ccc(Cl)c(F)c1)C(=O)NC12CC(NC(=O)COc3ccc(Cl)c(F)c3)(C1)C2` (centres unmarked) [Compound 421, 2-(4-chloro-3-fluorophenoxy)-N-{3-[2-(4-chloro-3-fluorophenoxy)acetamido]bicyclo[1.1.1]pentan-1-yl}-3-methoxypropanamide], 50 to 250 nM; under `CC(C)(O)c1ccc(OCC(=O)NC23CC(NC(=O)COc4ccc(Cl)c(Cl)c4)(C2)C3)cc1` [Compound 422, 2-(3,4-dichlorophenoxy)-N-(3-{2-[4-(2-hydroxypropan-2-yl)phenoxy]acetamido}bicyclo[1.1.1]pentan-1-yl)acetamide], 250 to 500 nM. For `Cc1cc(CC(=O)NC23CCC(NC(=O)COc4ccc(Cl)c(F)c4)(CC2)C(O)C3)on1` (centres unmarked) [Compound 423, 2-(4-chloro-3-fluorophenoxy)-N-{2-hydroxy-4-[2-(3-methyl-1,2-oxazol-5-yl)acetamido]bicyclo[2.2.2]octan-1-yl}acetamide], the EC50 is more than 2000 nM. For the molecule `O=C(/C=C/c1ccc(OC(F)(F)F)cn1)NC12CCC(NC(=O)COc3ccc(Cl)c(F)c3)(C1)C2` [Compound 425, (2E)-N-{4-[2-(4-chloro-3-fluorophenoxy)acetamido]bicyclo[2.1.1]hexan-1-yl}-3-[5-(trifluoromethoxy)pyridin-2-yl]prop-2-enamide], the EC50 is 500 to 2000 nM.

(Values after patent US20240166652A1, “MODULATORS OF THE INTEGRATED STRESS PATHWAY” (Calico Life Sciences LLC, priority 2017, published 2024).)
